Measured values: ChEMBL document CHEMBL3987221, “The Australian National University Dept Of Immunology Pathogen Box Compounds Screened” (2018)
Activity calls are given as the source filed them. How the calls were made is not given here.

Legend:
[1] = target: T1, Ferrochelatase, mitochondrial (Homo sapiens) (UniProt P22830); settings: at 10 µM
T1 sequence (whole entry): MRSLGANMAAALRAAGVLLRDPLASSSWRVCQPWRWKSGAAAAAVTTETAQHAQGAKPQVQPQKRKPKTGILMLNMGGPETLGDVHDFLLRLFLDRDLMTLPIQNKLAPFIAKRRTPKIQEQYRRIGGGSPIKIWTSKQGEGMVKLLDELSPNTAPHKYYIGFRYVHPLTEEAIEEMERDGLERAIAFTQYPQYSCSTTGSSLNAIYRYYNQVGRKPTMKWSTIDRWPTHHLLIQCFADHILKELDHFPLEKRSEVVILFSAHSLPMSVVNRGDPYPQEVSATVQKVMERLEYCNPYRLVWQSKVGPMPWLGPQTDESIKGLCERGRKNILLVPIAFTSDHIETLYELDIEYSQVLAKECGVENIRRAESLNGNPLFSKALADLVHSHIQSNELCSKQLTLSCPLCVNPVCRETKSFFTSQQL
Description: Compound was evaluated for the inhibition of human FECH at 10uM

[2] = target: T2, Porphobilinogen deaminase (Homo sapiens) (UniProt P08397); settings: at 100 µM
T2 sequence (whole entry): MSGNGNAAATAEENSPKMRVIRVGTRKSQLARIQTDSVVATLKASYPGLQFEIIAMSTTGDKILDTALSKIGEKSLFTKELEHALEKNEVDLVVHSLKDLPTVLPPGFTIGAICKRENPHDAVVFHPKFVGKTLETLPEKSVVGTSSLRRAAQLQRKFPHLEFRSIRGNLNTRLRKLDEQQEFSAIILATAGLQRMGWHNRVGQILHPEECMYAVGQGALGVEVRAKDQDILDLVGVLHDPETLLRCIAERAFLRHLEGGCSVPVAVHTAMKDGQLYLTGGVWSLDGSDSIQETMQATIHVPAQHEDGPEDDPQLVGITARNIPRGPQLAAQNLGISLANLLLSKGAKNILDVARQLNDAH
Description: Compound was evaluated for the inhibition of human HMBS at 100uM

| Compound | inhibition [1] | inhibition [2] |
| --- | --- | --- |
| CC1=Nc2ccc(Cl)cc2C(O)(c2ccc(C)cc2)N1CCN1CCCCC1 (configuration not stated) | inactive | inactive |
| O=C(NCCc1ccn(-c2ccccc2)n1)C1CCCCC1 | inactive | inactive |
| Cc1nc(-c2ccccn2)nc(N(C)CCc2ccccc2)c1Cl | inactive | inactive |
| O=C(NC1CC1)c1ccc(CSCc2ccccc2Cl)o1 | inactive | inactive |
| CC(C)(C)C(=O)N(CCCCCCN1C[C@H](O)[C@@H](O)[C@H](O)[C@H]1CO)C1CCCCCC1 | inactive | inactive |
| O=C(Nc1cccc(Cl)c1)c1cnc(N2CCN(c3ccncc3)CC2)c(Cl)c1 | inactive | inactive |
| Nc1ncc(-c2cn[nH]c2)cc1-c1nc2cc(Cl)cnc2[nH]1 | inactive | inactive |
| NCCC(O)C(=O)N[C@@H]1C[C@H](N)[C@@H](OC2O[C@H](CN)[C@@H](O)[C@H](O)[C@H]2O)[C@H](O)C1OC1O[C@H](CO)[C@@H](O)[C@H](N)[C@H]1O (some centres not stated) | inactive | inactive |
| Cc1c[nH]c(CCNC(=O)c2cc(-c3ccc(Cl)cc3)cs2)n1 | inactive | inactive |
| O=C(Nc1c(O)cccc1-c1nc2c(C(=O)O)cccc2o1)c1cc(-c2ccccc2)on1 | inactive | inactive |
| CC1COC(Cn2cncn2)(c2ccc(Oc3ccc(Cl)cc3)cc2Cl)O1 (configuration not stated) | inactive | inactive |
| O=C(c1[nH]nc2c1CCCC2)N1CCN(Cc2ccc3c(c2)OCO3)CC1 | inactive | inactive |
| CCC(Sc1nc2ccccc2o1)C(=O)Nc1nccs1 (configuration not stated) | inactive | inactive |
| O=C([C@@H](c1ccc(Cl)cc1)c1cccnc1)N1CCN(c2ccc(C(F)(F)F)cc2)CC1 | inactive | inactive |
| COc1ccc(Cn2cnc3c(-c4ccco4)nc(Cl)nc32)cc1 | inactive | inactive |
| COc1cncc(-c2cncc(N3CCN(c4ccncc4)CC3)n2)c1 | inactive | inactive |
| NCCCC(N)(C(=O)O)C(F)F (configuration not stated) | inactive | inactive |
| Cc1ccc(NC(=O)c2nc[nH]c2C(=O)Nc2nc3ccccc3[nH]2)c(C)c1 | inactive | inactive |
| COc1ccc(S(=O)(=O)Nc2ccc(CN3CCN(C(=O)c4cccc(C#N)c4)CC3)cc2)cc1 | inactive | inactive |
| C[C@@H]1[C@H](O)[C@@H](C)/C=C/C=C/C=C/C=C/C=C/C=C/C=C/[C@H](O[C@@H]2O[C@H](C)[C@@H](O)[C@H](N)[C@@H]2O)C[C@@H]2O[C@](O)(C[C@@H](O)C[C@@H](O)[C@H](O)CC[C@@H](O)C[C@@H](O)CC(=O)O[C@H]1C)C[C@H](O)[C@H]2C(=O)O | inactive | inactive |
| Cc1cc(C)cc(COc2ccc3c(C)c(CCC(=O)O)c(=O)oc3c2C)c1 | inactive | inactive |
| CS(=O)(=O)N1CCC(CCn2nc(Cc3cccc4ccccc34)c3c(N)ncnc32)CC1 | inactive | inactive |
| CC(C)(C)n1nc(Cc2ccc(F)c(Cl)c2)c2c(N)ncnc21 | inactive | inactive |
| CCn1cnc2c(Nc3cc(F)cc(F)c3)nc(C#N)nc21 | inactive | inactive |
| CC(C)/N=c1\cc2n(-c3ccc(Cl)cc3)c3ccccc3nc-2cc1Nc1ccc(Cl)cc1 | inactive | inactive |
| Nc1c2c(nc3sc4c(c13)CCCC4)CCCC2 | inactive | inactive |

| Compound | inhibition [1] | inhibition [2] |
| --- | --- | --- |
| COc1ccc(C(=N)N)cc1-c1cn(-c2ccc(C(=N)N)cc2)nn1 | inactive | inactive |
| NC(=O)c1cc(-c2ccsc2)ccc1OCCOc1ccccc1 | inactive | inactive |
| CO[C@H]1/C=C\O[C@@]2(C)Oc3c(C)c(O)c4c(O)c(/c(=C/NN5CCN(C)CC5)c(O)c4c3C2=O)=N\C(=O)/C(C)=C\C=C/[C@H](C)[C@H](O)[C@@H](C)[C@@H](O)[C@@H](C)[C@H](OC(C)=O)[C@@H]1C | inactive | inactive |
| O=C(NCc1cc(Cl)cc(Cl)c1)c1c(C(F)(F)F)nc2ccccn12 | inactive | inactive |
| O=C(Nc1nnc(S)s1)c1cc(Br)ccc1Cl | inactive | inactive |
| Cc1cc(NC(=O)c2ccc(S(=O)(=O)N(Cc3ccccc3)C(C)C)cc2)no1 | inactive | inactive |
| COc1cc(OC)cc(C(=O)NCC2Cc3cc(Cl)cc(-c4ccncc4)c3O2)c1 (configuration not stated) | inactive | inactive |
| CC1CCCCN1C(=O)NCCc1coc(-c2ccc(F)cc2)n1 (configuration not stated) | inactive | inactive |
| Cc1ncc(-c2ccnc(Nc3ccc(S(C)(=O)=O)cc3)n2)n1C(C)C | inactive | inactive |
| COc1ccc(C2=NN(C3CCCCCC3)C(=O)[C@@H]3CC=CC[C@H]23)cc1OCCCCOc1ccc(-c2nnn[nH]2)cc1 | inactive | inactive |
| O=C(Cn1ccnc1[N+](=O)[O-])NCc1ccccc1 | inactive | inactive |
| CCCCOC(=O)Nc1cc2nc(C3CCCCC3)[nH]c2cc1N1CCCC1 | inactive | inactive |
| CC1(C)Cc2c(c(N3CCOCC3)nc3snc(Br)c23)CO1 | inactive | inactive |
| Clc1ccc(CCNc2cc(-c3ccccc3)nc3ncnn23)cc1 | inactive | inactive |
| Oc1c(I)cc(I)c2cccnc12 | inactive | inactive |
| Cc1cc(NCCc2ccccc2)nc(NC(=N)Nc2ccc(Cl)cc2)n1 | inactive | inactive |
| COc1cc(CN2CCC3(C=Cc4ccccc43)CC2)cc2c1OCO2 | inactive | inactive |
| CC(=O)NCC1CN(c2ccc(-c3ccc(CO)cc3)c(F)c2)C(=O)O1 (configuration not stated) | inactive | inactive |
| O=C(Nc1ccc(N2CCNCC2)nc1)c1oc(-c2ccccc2)nc1C(F)(F)F | inactive | inactive |
| CCCNC(=O)N1CCC2(CC1)CC(=O)c1cc(C)ccc1O2 | inactive | inactive |
| CC(C)C(NC(=O)Cc1cccc2ccccc12)C(=O)Nc1cccc(C#N)c1 (configuration not stated) | inactive | inactive |
| COc1cccc(OC)c1C(=O)Nc1ccc(Cl)c(-c2nc3ccccc3s2)c1 | inactive | inactive |
| CN1CCN(S(=O)(=O)c2ccc(-c3ccc4c(Nc5ncc(Cl)cn5)ccnc4c3)cc2)CC1 | inactive | inactive |
| CC1(C)OB(O)c2ccc(C3=NOC(c4cc(Cl)c(F)c(Cl)c4)(C(F)(F)F)C3)cc21 (configuration not stated) | inactive | inactive |
| CNCCC(Oc1ccc(C(F)(F)F)cc1)c1ccccc1 (configuration not stated) | inactive | inactive |
